Measured values as given in ChEMBL document CHEMBL1155266, “Synthesis and biological evaluation of new 4-carboxyl quinoline derivatives as cyclooxygenase-2 inhibitors” (Bioorg Med Chem, 2009).

These compounds were tested against T1, Prostaglandin G/H synthase 1 (Ovis aries, UniProt P05979).
T1 sequence (P05979 whole entry): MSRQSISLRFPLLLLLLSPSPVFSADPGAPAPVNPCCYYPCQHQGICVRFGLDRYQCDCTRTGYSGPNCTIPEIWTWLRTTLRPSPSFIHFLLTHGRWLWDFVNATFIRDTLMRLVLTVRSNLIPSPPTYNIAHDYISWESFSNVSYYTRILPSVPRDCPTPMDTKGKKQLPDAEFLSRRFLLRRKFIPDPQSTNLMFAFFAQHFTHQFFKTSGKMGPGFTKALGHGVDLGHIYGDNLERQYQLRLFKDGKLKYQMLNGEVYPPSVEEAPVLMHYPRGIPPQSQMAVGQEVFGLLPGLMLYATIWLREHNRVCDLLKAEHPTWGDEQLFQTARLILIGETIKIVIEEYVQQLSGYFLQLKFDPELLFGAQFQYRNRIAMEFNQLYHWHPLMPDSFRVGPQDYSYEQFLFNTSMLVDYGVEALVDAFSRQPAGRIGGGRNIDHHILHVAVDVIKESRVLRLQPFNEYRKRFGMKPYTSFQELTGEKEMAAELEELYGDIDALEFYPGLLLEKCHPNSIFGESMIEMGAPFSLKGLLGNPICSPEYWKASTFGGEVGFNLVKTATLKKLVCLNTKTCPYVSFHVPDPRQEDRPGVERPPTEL
Description: Inhibition of ovine COX1 by chemiluminescent enzyme assay
With `CS(=O)(=O)c1ccc(-c2cc(C(=O)O)c3ccc4ccccc4c3n2)cc1` the IC50 was 17.6 µM.
`CS(=O)(=O)c1ccc(-c2cc(C(=O)O)c3ccccc3n2)cc1` gave an IC50 of 13.4 µM.
`Cc1ccc2c(C(=O)O)cc(-c3ccc(S(C)(=O)=O)cc3)nc2c1C` was tested, and the IC50 was 14.5 µM.
For `CS(=O)(=O)c1ccc(-c2cc(C(=O)O)c3cccc(-c4ccccc4)c3n2)cc1`, the IC50 was 14.7 µM.
Work on `CS(=O)(=O)c1ccc(-c2cc(C(=O)O)c3ccc4c(c3n2)CCCC4)cc1` yielded an IC50 of 22.1 µM.
`Cc1cccc2c(C(=O)O)cc(-c3ccc(S(C)(=O)=O)cc3)nc12` showed an IC50 of 14.2 µM.
